{"source": "paper PMC7463582", "about": "“Modulation and Protection Effects of Antioxidant Compounds against Oxidant Induced Developmental Toxicity in Zebrafish” (Antioxidants, 2020)", "key": {"[1]": {"assay": "Zebrafish embryo test: lethality and dysmorphogenesis after exposure to a single oxidative stress-related compound", "assay_type": "in vivo, Zebrafish (Danio rerio)", "details": "zebrafish, in vivo, read-out: LC50 (lethal concentration 50)", "experimental": "(§1) To characterize the effects on embryonic development produced by compounds related to OS, ZF embryos were exposed to OS inducers, modulators of antioxidant status and antioxidants. For compounds which were dissolved in DMSO and diluted with Danieau’s buffer, a vehicle negative control group with 0.05% DMSO in 0.3× Danieau’s buffer was assayed.\n(§2) From 26 to 50 hpf, embryos were incubated with 0.3× Danieau’s buffer with or without DMSO, depending on the dissolution of the compound of study.\n(§3) Exposure to OS inducers was conducted from 26 to 50 hpf to select the working concentrations of these compounds for the experimental design. In this case, from 2 to 26 hpf, embryos were incubated with Danieau’s buffer with or without DMSO, depending on the dissolution of the compound of study.\n(§4) Exposure of ZF embryos was semi-static and was carried out in 6-well plates (Greiner Bio-one, Frickenhausen, Germany). Ten embryos per group were selected and randomly distributed into the wells and filled with 5mL of the corresponding solution of the compound. Embryos were incubated at 26 ± 1 °C with a dark–light cycle of 10–14 h. Renewal of the medium and of the solutions was made every 24 h. Evaluation of the embryos was performed at different time points. Lethality was determined at 8, 26, and 50 hpf based on egg coagulation, the absence of tail detachment, or somite formation and the absence of heartbeat. Dysmorphogenic effects were evaluated at 50 hpf by the total morphological score system described by. For each compound of study, at least three independent experiments were performed using embryos from different spawning events (n = 3).\n(§5) The percentage of lethality and of dysmorphogenesis was calculated per compound at every tested concentration, and the concentration–response curves for these effects were plotted."}, "zebrafish embryos [2]": {"tested_on": "zebrafish embryos", "assay": "Zebrafish embryo test: lethality and dysmorphogenesis after exposure to a single oxidative stress-related compound", "assay_type": "in vivo, Zebrafish (Danio rerio)", "details": "for EC50: read-out: EC50 (effective concentration 50 for dysmorphogenesis)", "experimental": "as §1, §2, §3, §4, §5"}, "in vivo": {"assay": "in vivo", "details": "zebrafish"}, "zebrafish embryos [3]": {"tested_on": "zebrafish embryos", "assay": "animal or person", "details": "Danio rerio"}, "zebrafish embryos [4]": {"tested_on": "zebrafish embryos", "details": "for Change of dysmorphogenic effects of LPS / Shift of the LPS lethality concentration–effect curve / Shift of the TCHQ concentration–response curves for lethality and dysmorphogenesis / Mortality of embryos exposed to tBOOH after pre-exposure / Shift of the tBOOH concentration–response curves (lethality and dysmorphogenesis): pre-exposure to the modulator at MTC; for Change of dysmorphogenic effects of LPS / Shift of the LPS lethality concentration–effect curve: then LPS, versus LPS alone; for Shift of the TCHQ concentration–response curves for lethality and dysmorphogenesis: then TCHQ, versus TCHQ alone; for Mortality of embryos exposed to tBOOH after pre-exposure / Shift of the tBOOH concentration–response curves (lethality and dysmorphogenesis): then tBOOH; for Shift of the tBOOH concentration–response curves (lethality and dysmorphogenesis): versus tBOOH alone"}, "zebrafish embryos [5]": {"tested_on": "zebrafish embryos", "assay": "animal or person", "details": "Danio rerio, read-out: EC50 (95% CI) for dysmorphogenesis of tBOOH"}, "[6]": {"details": "exposure window 2–26 hpf, not calculated, reason in footnote"}, "[7]": {"details": "Danio rerio, exposure window 2–26 hpf, evaluated at 50 hpf"}}, "note": "Counter-ions that a name gives are not always drawn."}
{"compound": "O=c1c(O)c(-c2ccc(O)c(O)c2)oc2cc(O)cc(O)c12", "note": "[Quercetin, quercetin hydrate]", "values": [{"measurement": "LC50", "setting": "[1]; [6]", "value": "> 30", "unit": "µM"}, {"measurement": "MTC (maximum tolerable concentration)", "setting": "zebrafish embryos [2]; exposure window 2–26 hpf", "value": 20, "unit": "µM"}]}
{"compound": "Oc1c(Cl)c(Cl)c(O)c(Cl)c1Cl", "note": "[Tetrachlorohydroquinone (TCHQ), Tetrachlorohydroquinone]", "values": [{"measurement": "LC50", "setting": "[1]; exposure window 26–50 hpf", "value": 16, "unit": "µM"}, {"measurement": "EC50", "setting": "zebrafish embryos [2]; Danio rerio", "value": 3.9, "unit": "µM"}, {"measurement": "Compound-specific dysmorphogenic effect", "setting": "zebrafish embryos [2]; exposure 26–50 hpf", "value": "produced an effect in the pigmentation of the embryos"}, {"measurement": "LC50", "setting": "in vivo", "value": 15.2, "unit": "µM"}, {"measurement": "EC50", "setting": "zebrafish embryos [3]; read-out: EC50 (95% CI) for dysmorphogenesis of TCHQ", "value": 8.84, "unit": "µM"}]}
{"compound": "COC(=O)[C@@H](N)CCCNC(N)=N[N+](=O)[O-]", "note": "[Nω-nitro L-arginine methyl ester hydrochloride]", "values": [{"measurement": "LC50", "setting": "[1]; [6]", "value": "> 100", "unit": "µM"}, {"measurement": "EC50", "setting": "zebrafish embryos [2]; [7]", "value": 44.4, "unit": "µM"}, {"measurement": "MTC (maximum tolerable concentration)", "setting": "zebrafish embryos [2]; exposure window 2–26 hpf", "value": 5, "unit": "µM"}, {"measurement": "Change of dysmorphogenic effects of LPS", "setting": "zebrafish embryos [4]", "value": "significant reduction in dysmorphogenic effects"}, {"measurement": "Shift of the LPS lethality concentration–effect curve", "setting": "zebrafish embryos [4]", "value": "shifted the lethality concentration–effect curves significantly"}, {"measurement": "Shift of the TCHQ concentration–response curves for lethality and dysmorphogenesis", "setting": "zebrafish embryos [4]", "value": "significantly shifted to higher concentrations of TCHQ"}, {"measurement": "Mortality of embryos exposed to tBOOH after pre-exposure", "setting": "zebrafish embryos [4]", "value": "no significant effects in mortality of the embryos were observed"}, {"measurement": "Shift of the tBOOH concentration–response curves (lethality and dysmorphogenesis)", "setting": "zebrafish embryos [4]", "value": "significantly drifted the tBOOH concentration–response curves to higher concentrations"}]}
{"compound": "CCOC(=O)/C=C\\C(=O)OCC", "note": "[Diethyl maleate (DEM), diethyl maleate]", "values": [{"measurement": "LC50", "setting": "[1]; [6]", "value": "< 100", "unit": "µM"}, {"measurement": "EC50", "setting": "zebrafish embryos [2]; [7]", "value": 1.5, "unit": "µM"}, {"measurement": "MTC (maximum tolerable concentration)", "setting": "zebrafish embryos [2]; exposure window 2–26 hpf", "value": 0.5, "unit": "µM"}, {"measurement": "Change of dysmorphogenic effects of LPS", "setting": "zebrafish embryos [4]", "value": "no significant effects were observed"}, {"measurement": "Shift of the LPS lethality concentration–effect curve", "setting": "zebrafish embryos [4]", "value": "shifted the lethality concentration–effect curves significantly"}, {"measurement": "Shift of the TCHQ concentration–response curves for lethality and dysmorphogenesis", "setting": "zebrafish embryos [4]", "value": "statistically significant drift in the concentration–effect curves for lethality and dysmorphogenesis to lower concentrations of TCHQ"}, {"measurement": "Shift of the tBOOH concentration–response curves (lethality and dysmorphogenesis)", "setting": "zebrafish embryos [4]", "value": "a significant shift in the concentration–response curves to lower concentrations of tBOOH"}]}
{"compound": "CCCCS(=N)(=O)CCC(N)C(=O)O", "note": "(racemic) [DL-buthionine sulfoximine (BSO), DL-buthionine sulfoximine]", "values": [{"measurement": "MTC (maximum tolerable concentration)", "setting": "zebrafish embryos [2]; exposure window 2–26 hpf", "value": 50, "unit": "µM"}, {"measurement": "EC50", "setting": "zebrafish embryos [2]; exposure window 2–26 hpf, evaluated at 50 hpf", "value": 2720, "unit": "µM"}, {"measurement": "Change of dysmorphogenic effects of LPS", "setting": "zebrafish embryos [4]", "value": "no significant effects were observed"}, {"measurement": "Shift of the LPS lethality concentration–effect curve", "setting": "zebrafish embryos [4]", "value": "shifted the lethality concentration–effect curves significantly"}, {"measurement": "Shift of the TCHQ concentration–response curves for lethality and dysmorphogenesis", "setting": "zebrafish embryos [4]", "value": "statistically significant drift in the concentration–effect curves for lethality and dysmorphogenesis to lower concentrations of TCHQ"}, {"measurement": "Shift of the tBOOH concentration–response curves (lethality and dysmorphogenesis)", "setting": "zebrafish embryos [4]", "value": "a significant shift in the concentration–response curves to lower concentrations of tBOOH"}]}
{"compound": "(±)-α-tocopherol [Vit. E]", "values": [{"measurement": "MTC (maximum tolerable concentration)", "setting": "zebrafish embryos [2]; exposure window 2–26 hpf", "value": 100, "unit": "µM"}, {"measurement": "LC50", "setting": "zebrafish embryos [2]; exposure window 2–26 hpf, not calculated, reason in footnote, read-out: LC50 (lethal concentration 50)", "value": "> 30", "unit": "µM"}]}
{"compound": "CC(=O)N[C@@H](CS)C(=O)O", "note": "[N-acetyl-L-cysteine (NAC), N-acetyl-L-cysteine]", "values": [{"measurement": "LC50", "setting": "[1]; exposure window 2–26 hpf", "value": 1870, "unit": "µM"}, {"measurement": "EC50", "setting": "zebrafish embryos [2]; [7]", "value": 921, "unit": "µM"}, {"measurement": "MTC (maximum tolerable concentration)", "setting": "zebrafish embryos [2]; exposure window 2–26 hpf", "value": 250, "unit": "µM"}, {"measurement": "Change of dysmorphogenic effects of LPS", "setting": "zebrafish embryos [4]", "value": "no significant effects were observed"}, {"measurement": "Mortality of embryos exposed to tBOOH after pre-exposure", "setting": "zebrafish embryos [4]", "value": "no significant effects in mortality of the embryos were observed"}, {"measurement": "LC50 (95% CI) of LPS after pre-exposure to the modulator", "setting": "zebrafish embryos [4]; zebrafish, in vivo, pH 7.4", "value": "51.6 µg/mL * (48.8–54.5)"}, {"measurement": "LC50 (95% CI) of TCHQ after pre-exposure to the modulator", "setting": "zebrafish embryos [4]; zebrafish, in vivo, pH 7.4", "value": "19.6 µM * (16.6–23.3)"}]}
{"compound": "CC(C)(C)OO", "note": "[Tert-butyl hydroperoxide (tBOOH), Tert-butyl hydroperoxide]", "values": [{"measurement": "EC50", "setting": "zebrafish embryos [2]; Danio rerio, exposure window 26–50 hpf, evaluated at 50 hpf", "value": 1600, "unit": "µM"}, {"measurement": "EC50", "setting": "zebrafish embryos [5]", "value": 1640, "unit": "µM"}, {"measurement": "EC50", "setting": "zebrafish embryos [3]; read-out: EC50 (95% CI) for dysmorphogenesis of tBOOH", "value": 1640, "unit": "µM"}]}
